Measurements taken from ChEMBL document CHEMBL1201862, “PubChem BioAssay data set” (2004).
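A five-concentration, 48-hour dose response in 96-well plates underlies each endpoint, interpolated linearly between surrounding concentrations. At the GI50, growth is halved.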 Activity calls are given as the source filed them. Cut-off read from the data, not from the text of the source: active = GI50 up to about 1.1 µM and inactive = higher.

Assays:
Assay in all cases: NCI-60 cell line screen, 48 h
ACHN = test system: ACHN
KM12 = test system: KM12
HOP-18 = test system: HOP-18
Malme-3M = test system: Malme-3M
SK-OV-3 = test system: SK-OV-3
HOP-92 = test system: HOP-92
SK-MEL-2 = test system: SK-MEL-2
COLO 205 = test system: COLO 205
RPMI-8226 = test system: RPMI-8226
XF498 = test system: XF498
SF-539 = test system: SF-539
SNB-75 = test system: SNB-75
UACC-62 = test system: UACC-62
DMS-273 = test system: DMS-273
HCT-15 = test system: HCT-15
MOLT-4 = test system: MOLT-4
LOX IMVI = test system: LOX IMVI
SF-295 = test system: SF-295
SK-MEL-28 = test system: SK-MEL-28
CCRF-CEM = test system: CCRF-CEM
SF-268 = test system: SF-268
EKVX = test system: EKVX
RXF 393 = test system: RXF 393
SN12C = test system: SN12C
HOP-62 = test system: HOP-62
A549 = test system: A549
HT-29 = test system: HT-29
SK-MEL-5 = test system: SK-MEL-5
DMS-114 = test system: DMS-114
HCC 2998 = test system: HCC 2998
A498 = test system: A498
K562 = test system: K562
HL-60 = test system: HL-60
OVCAR-5 = test system: OVCAR-5
NCI-H460 = test system: NCI-H460
LXFL 529 = test system: LXFL 529
SNB-78 = test system: SNB-78
HCT-116 = test system: HCT-116
OVCAR-8 = test system: OVCAR-8
IGROV-1 = test system: IGROV-1
NCI-H226 = test system: NCI-H226
KM-20L2 = test system: KM-20L2
UO-31 = test system: UO-31
SR = test system: SR
NCI-H23 = test system: NCI-H23
TK-10 = test system: TK-10
U-251 = test system: U-251
OVCAR-4 = test system: OVCAR-4
CAKI-1 = test system: CAKI-1
786-0 = test system: 786-0
M19-MEL = test system: M19-MEL
NCI-H522 = test system: NCI-H522
SNB-19 = test system: SNB-19
M14 = test system: M14
OVCAR-3 = test system: OVCAR-3
DLD-1 = test system: DLD-1
UACC-257 = test system: UACC-257
SW-620 = test system: SW-620
RXF 631 = test system: RXF 631

CC(C)C(=O)N1C(=O)O[C@@H](c2ccccc2)[C@H]1C
GI50 (ACHN): > 100 µM (inactive)
GI50 (KM12): > 100 µM (inactive)
GI50 (HOP-18): > 100 µM (inactive)
GI50 (Malme-3M): > 100 µM (inactive)
GI50 (SK-OV-3): > 100 µM (inactive)
GI50 (HOP-92): > 100 µM (inactive)
GI50 (SK-MEL-2): > 100 µM (inactive)
GI50 (COLO 205): > 100 µM (inactive)
GI50 (RPMI-8226): > 100 µM (inactive)
GI50 (XF498): > 100 µM (inactive)
GI50 (SF-539): > 100 µM (inactive)
GI50 (SNB-75): > 100 µM (inactive)
GI50 (UACC-62): > 100 µM (inactive)
GI50 (DMS-273): > 100 µM (inactive)
GI50 (HCT-15): > 100 µM
GI50 (MOLT-4): > 100 µM (inactive)
GI50 (LOX IMVI): > 100 µM (inactive)
GI50 (SF-295): > 100 µM (inactive)
GI50 (SK-MEL-28): > 100 µM (inactive)
GI50 (CCRF-CEM): > 100 µM (inactive)
GI50 (SF-268): > 100 µM (inactive)
GI50 (EKVX): > 100 µM (inactive)
GI50 (RXF 393): > 84.1 µM (inactive)
GI50 (SN12C): > 100 µM (inactive)
GI50 (HOP-62): > 100 µM (inactive)
GI50 (A549): > 100 µM (inactive)
GI50 (HT-29): > 100 µM (inactive)
GI50 (SK-MEL-5): > 100 µM (inactive)
GI50 (DMS-114): > 100 µM (inactive)
GI50 (HCC 2998): > 100 µM (inactive)
GI50 (A498): > 100 µM (inactive)
GI50 (K562): > 100 µM (inactive)
GI50 (HL-60): > 100 µM (inactive)
GI50 (OVCAR-5): > 100 µM (inactive)
GI50 (NCI-H460): > 100 µM (inactive)
GI50 (LXFL 529): > 100 µM (inactive)
GI50 (SNB-78): > 100 µM (inactive)
GI50 (HCT-116): > 100 µM (inactive)
GI50 (OVCAR-8): > 100 µM (inactive)
GI50 (IGROV-1): > 100 µM (inactive)
GI50 (NCI-H226): > 100 µM (inactive)
GI50 (KM-20L2): > 100 µM (inactive)
GI50 (UO-31): > 100 µM (inactive)
GI50 (SR): > 100 µM (inactive)
GI50 (NCI-H23): > 100 µM (inactive)
GI50 (TK-10): > 100 µM (inactive)
GI50 (U-251): > 100 µM (inactive)
GI50 (OVCAR-4): > 100 µM (inactive)
GI50 (CAKI-1): > 37 µM (inactive)
GI50 (786-0): > 100 µM (inactive)
GI50 (M19-MEL): > 100 µM (inactive)
GI50 (NCI-H522): > 100 µM (inactive)
GI50 (SNB-19): > 23.6 µM (inactive)
GI50 (M14): > 100 µM (inactive)
GI50 (OVCAR-3): > 100 µM (inactive)
GI50 (DLD-1): > 100 µM (inactive)
GI50 (UACC-257): > 100 µM (inactive)

COC(=O)CC(C(C(C)=O)C(=O)OCc1ccccc1)N1C(=O)OCC1c1ccccc1 (stereo not drawn)
GI50 (ACHN): > 100 µM (inactive)
GI50 (Malme-3M): > 100 µM (inactive)
GI50 (SK-MEL-2): > 100 µM (inactive)
GI50 (COLO 205): > 100 µM (inactive)
GI50 (RPMI-8226): 51.5 µM (inactive)
GI50 (XF498): 53.5 µM (inactive)
GI50 (SF-539): > 100 µM (inactive)
GI50 (SNB-75): 15.5 µM (inactive)
GI50 (UACC-62): 44.2 µM (inactive)
GI50 (DMS-273): > 100 µM (inactive)
GI50 (HCT-15): > 100 µM
GI50 (MOLT-4): 45.9 µM (inactive)
GI50 (LOX IMVI): > 100 µM (inactive)
GI50 (SF-295): > 100 µM (inactive)
GI50 (SK-MEL-28): > 100 µM (inactive)
GI50 (CCRF-CEM): > 100 µM (inactive)
GI50 (SF-268): > 100 µM (inactive)
GI50 (EKVX): > 100 µM (inactive)
GI50 (RXF 393): > 100 µM (inactive)
GI50 (SN12C): > 100 µM (inactive)
GI50 (HOP-62): > 100 µM (inactive)
GI50 (A549): 62.8 µM (inactive)
GI50 (HT-29): > 100 µM (inactive)
GI50 (SK-MEL-5): 47.8 µM (inactive)
GI50 (DMS-114): 52 µM (inactive)
GI50 (HCC 2998): > 100 µM (inactive)
GI50 (A498): 67.9 µM (inactive)
GI50 (K562): > 100 µM (inactive)
GI50 (HL-60): 91.6 µM (inactive)
GI50 (NCI-H460): 75.2 µM (inactive)
GI50 (LXFL 529): 83.2 µM (inactive)
GI50 (HCT-116): > 100 µM (inactive)
GI50 (OVCAR-8): > 100 µM (inactive)
GI50 (IGROV-1): 50 µM (inactive)
GI50 (NCI-H226): 60.5 µM (inactive)
GI50 (KM-20L2): > 100 µM (inactive)
GI50 (UO-31): 44.4 µM (inactive)
GI50 (SR): 74.5 µM (inactive)
GI50 (NCI-H23): > 100 µM (inactive)
GI50 (TK-10): > 100 µM (inactive)
GI50 (U-251): 65.2 µM (inactive)
GI50 (OVCAR-4): 71.3 µM (inactive)
GI50 (786-0): > 100 µM (inactive)
GI50 (M19-MEL): > 100 µM (inactive)
GI50 (SW-620): > 100 µM (inactive)
GI50 (SNB-19): > 100 µM (inactive)
GI50 (M14): > 100 µM (inactive)
GI50 (RXF 631): > 100 µM (inactive)
GI50 (OVCAR-3): 87.9 µM (inactive)
GI50 (DLD-1): 47.2 µM (inactive)
GI50 (UACC-257): 93.5 µM (inactive)
